Assay results as given in patent US6165986A (Taisho Pharmaceutical Co., Ltd., priority 1997, dated 2000).
In brackets after ≈: the same amount, converted by molar mass.

Assays:
Format in all cases: cell-based
S. epidermidis IID 866 = test: In vitro antibacterial activity (MIC), S. epidermidis IID 866; settings: Staphylococcus epidermidis, IID866, sensitive disc media, Japan Society of Chemotherapy method, read-out: MIC value (Minimum Inhibitory Concentration)
Description: (§1) The in vitro antibacterial activity of the compound obtained in Example 2 as an example of the compound of the present invention against various experimental bacteria was measured using sensitive disc media (produced by Eiken Chemical Co.) according to the MIC measuring method specified by the Japan Society of Chemotherapy. Clarithromycin was used as a comparative drug.

E. faecalis CSJ 1212 = test: In vitro antibacterial activity (MIC), E. faecalis CSJ 1212; settings: Enterococcus faecalis, CSJ1212, sensitive disc media, Japan Society of Chemotherapy method, read-out: MIC value (Minimum Inhibitory Concentration)
Description: as §1

S. pneumoniae BM 225 = test: In vitro antibacterial activity (MIC), S. pneumoniae BM 225; settings: Streptococcus pneumoniae, BM225, sensitive disc media, Japan Society of Chemotherapy method, read-out: MIC value (Minimum Inhibitory Concentration)
Description: as §1

S. pneumoniae BM 211 = test: In vitro antibacterial activity (MIC), S. pneumoniae BM 211; settings: Streptococcus pneumoniae, BM211, sensitive disc media, Japan Society of Chemotherapy method, read-out: MIC value (Minimum Inhibitory Concentration)
Description: as §1

S. aureus 209P-JC = test: In vitro antibacterial activity (MIC), S. aureus 209P-JC; settings: Staphylococcus aureus, sensitive disc media, Japan Society of Chemotherapy method, read-out: MIC value (Minimum Inhibitory Concentration)
Description: as §1

S. aureus Smith = test: In vitro antibacterial activity (MIC), S. aureus Smith; settings: Staphylococcus aureus, sensitive disc media, Japan Society of Chemotherapy method, read-out: MIC value (Minimum Inhibitory Concentration)
Description: as §1

[1] = tested on: erythromycin-resistant bacteria; test: Antibacterial activity against erythromycin-resistant bacteria
Description: as §1

[2] = tested on: erythromycin-sensitive bacteria; test: Antibacterial activity against erythromycin-sensitive bacteria
Description: as §1

Haemophilus influenzae = test: Antibacterial activity against Haemophilus influenzae
Description: as §1

| Compound | MIC (S. epidermidis IID 866) [µg/mL] | MIC (E. faecalis CSJ 1212) [µg/mL] | MIC (S. pneumoniae BM 225) [µg/mL] | MIC (S. pneumoniae BM 211) [µg/mL] | MIC (S. aureus 209P-JC) [µg/mL] | MIC (S. aureus Smith) [µg/mL] | antibacterial activity (in words) [1] | antibacterial activity (in words) [2] | antibacterial activity (in words) (Haemophilus influenzae) |
| --- | --- | --- | --- | --- | --- | --- | --- | --- | --- |
| CC[C@H]1OC(=O)[C@H](C)[C@@H](O[C@H]2C[C@@](C)(OC)[C@@H](O)[C@H](C)O2)[C@H](C)[C@@H](O[C@@H]2O[C@H](C)C[C@H](N(C)C)[C@H]2O)[C@](C)(OC)C[C@@H](C)C(=O)[C@H](C)[C@@H](O)[C@]1(C)O [Comparative drug, Clarithromycin, reference compound] | 0.2 (≈ 0.267 µM) | 0.2 (≈ 0.267 µM) | 50 (≈ 66.8 µM) | > 100 | 0.1 (≈ 0.134 µM) | 0.2 (≈ 0.267 µM) |  |  |  |
| CC[C@H]1OC(=O)[C@H](C)C(=O)[C@H](C)[C@@H](O[C@@H]2O[C@H](C)C[C@H](N(C)C)[C@H]2O)[C@](C)(OC)C[C@@H](C)C(=O)[C@H](C)[C@H]2N(CCN(C)Cc3cccnc3)C(=O)O[C@]12C [Example 2, 11-[2-[N-methyl-N-(3-pyridylmethyl)amino]ethyl]amino-3,11-dideoxy-3-oxo-5-O-desosaminyl-6-O-methylerythronolide A 11,12-cyclic carbamate] | 0.1 (≈ 0.131 µM) | 0.05 (≈ 0.0657 µM) | 0.39 (≈ 0.513 µM) | 50 (≈ 65.7 µM) | 0.05 (≈ 0.0657 µM) | 0.1 (≈ 0.131 µM) | strong antibacterial activity | strong antibacterial activity | strong antibacterial activity |
